{"source": "patent US8952024B2", "about": "“Herbicidal pyrimidone derivatives” (E I du Pont de Nemours and Company, priority 2009, dated 2015)", "type_in_all_cases": "in vivo", "key": {"[1]": {"system": "cocklebur (Xanthium strumarium)", "experiment": "Test B pre-/postemergence plant response", "summary_of_the_method": "(§1)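 Seeds sown in loam–sand blend were treated preemergence, and plants at 2–18 cm (1- to 4-leaf stage) in peat-based medium were treated postemergence; compounds were formulated in non-phytotoxic solvent with surfactant. After 13–15 days in greenhouse, response was visually rated against controls, 0 (no effect) to 100 (complete control).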"}, "[2]": {"system": "goosegrass (Eleusine indica)", "experiment": "Test B pre-/postemergence plant response", "summary_of_the_method": "as §1"}, "[3]": {"system": "johnsongrass (Sorghum halepense)", "experiment": "Test B pre-/postemergence plant response", "summary_of_the_method": "as §1"}, "kochia (Kochia scoparia)": {"system": "kochia (Kochia scoparia)", "experiment": "Test B pre-/postemergence plant response", "summary_of_the_method": "as §1"}, "[4]": {"system": "pigweed (Amaranthus retroflexus)", "experiment": "Test B pre-/postemergence plant response", "summary_of_the_method": "as §1"}, "[5]": {"system": "ragweed (common ragweed, Ambrosia elatior)", "experiment": "Test B pre-/postemergence plant response", "summary_of_the_method": "as §1"}, "soybean (Glycine max)": {"system": "soybean (Glycine max)", "experiment": "Test B pre-/postemergence plant response", "summary_of_the_method": "as §1"}, "[6]": {"system": "velvetleaf (Abutilon theophrasti)", "experiment": "Test B pre-/postemergence plant response", "summary_of_the_method": "as §1"}, "[7]": {"system": "wheat (Triticum aestivum)", "experiment": "Test B pre-/postemergence plant response", "summary_of_the_method": "as §1"}, "wild oat (Avena fatua)": {"system": "wild oat (Avena fatua)", "experiment": "Test B pre-/postemergence plant response", "summary_of_the_method": "as §1"}, "[8]": {"system": "canarygrass (Phalaris minor)", "experiment": "Test B postemergence plant response", "summary_of_the_method": "(§2)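 Plants at the 1- to 4-leaf stage (2 to 18 cm tall), grown in pots of peat moss/vermiculite medium with wetting agent and starter nutrients, received postemergence applications of test chemicals. After 13 to 15 days in a greenhouse, injury was rated visually against untreated controls on a 0 (no effect) to 100 (complete control) scale.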"}, "[9]": {"system": "chickweed (Stellaria media)", "experiment": "Test B postemergence plant response", "summary_of_the_method": "as §2"}, "[10]": {"system": "windgrass (Apera spica-venti)", "experiment": "Test B postemergence plant response", "summary_of_the_method": "as §2"}, "[11]": {"conditions": "31 g ai/ha, postemergence, scale 0 to 100, 0 is no effect, 100 is complete control"}, "[12]": {"conditions": "250 g ai/ha, Preemergence, 0 to 100 scale"}, "[13]": {"conditions": "Postemergence, 62 g ai/ha, scale 0 (no effect) to 100 (complete control), 13 to 15 days"}, "[14]": {"conditions": "Postemergence, 125 g ai/ha, visual rating after 13 to 15 days, scale 0 (no effect) to 100 (complete control)"}, "[15]": {"conditions": "Postemergence, 250 g ai/ha, scale 0 to 100 (0 no effect, 100 complete control)"}, "[16]": {"conditions": "Preemergence, 31 g ai/ha, scale 0 to 100 (0 no effect, 100 complete control)"}, "[17]": {"conditions": "Preemergence, 62 g ai/ha, scale 0 to 100 (0 no effect, 100 complete control)"}, "[18]": {"conditions": "Preemergence, 125 g ai/ha, scale 0 to 100, 0 no effect, 100 complete control"}}}
{"smiles": "O=C1CCCC(O)=C1C(=O)c1cnc(-c2cccc(Cl)c2)n(-c2ccc(Cl)cc2)c1=O", "note": "[Compound 64]", "values": [{"measurement": "Plant response rating, Cocklebur", "setting": "[1]; [11]", "value": 90}, {"measurement": "Plant response rating, Cocklebur", "setting": "[1]; [12]", "value": 70}, {"measurement": "Plant response rating, Cocklebur", "setting": "[1]; [13]", "value": 95}, {"measurement": "Plant response rating, Cocklebur", "setting": "[1]; [14]", "value": 95}, {"measurement": "Plant response rating, Cocklebur", "setting": "[1]; [15]", "value": 95}, {"measurement": "Plant response rating, Cocklebur", "setting": "[1]; [16]", "value": 0}, {"measurement": "Plant response rating, Cocklebur", "setting": "[1]; [17]", "value": 0}, {"measurement": "Plant response rating, Cocklebur", "setting": "[1]; [18]", "value": 10}, {"measurement": "Plant response rating, Goosegrass", "setting": "[2]; [11]", "value": 80}, {"measurement": "Plant response rating, Goosegrass", "setting": "[2]; [12]", "value": 100}, {"measurement": "Plant response rating, Goosegrass", "setting": "[2]; [13]", "value": 80}, {"measurement": "Plant response rating, Goosegrass", "setting": "[2]; [14]", "value": 85}, {"measurement": "Plant response rating, Goosegrass", "setting": "[2]; [15]", "value": 90}, {"measurement": "Plant response rating, Goosegrass", "setting": "[2]; [16]", "value": 30}, {"measurement": "Plant response rating, Goosegrass", "setting": "[2]; [17]", "value": 40}, {"measurement": "Plant response rating, Goosegrass", "setting": "[2]; [18]", "value": 98}, {"measurement": "Plant response rating, Johnsongrass", "setting": "[3]; [11]", "value": 90}, {"measurement": "Plant response rating, Johnsongrass", "setting": "[3]; [12]", "value": 75}, {"measurement": "Plant response rating, Johnsongrass", "setting": "[3]; [13]", "value": 98}, {"measurement": "Plant response rating, Johnsongrass", "setting": "[3]; [14]", "value": 100}, {"measurement": "Plant response rating, Johnsongrass", "setting": "[3]; [15]", "value": 100}, {"measurement": "Plant response rating, Johnsongrass", "setting": "[3]; [16]", "value": 0}, {"measurement": "Plant response rating, Johnsongrass", "setting": "[3]; [17]", "value": 0}, {"measurement": "Plant response rating, Johnsongrass", "setting": "[3]; [18]", "value": 55}, {"measurement": "Plant response rating, Kochia", "setting": "kochia (Kochia scoparia); [11]", "value": 50}, {"measurement": "Plant response rating, Kochia", "setting": "kochia (Kochia scoparia); [12]", "value": 95}, {"measurement": "Plant response rating, Kochia", "setting": "kochia (Kochia scoparia); [13]", "value": 55}, {"measurement": "Plant response rating, Kochia", "setting": "kochia (Kochia scoparia); [14]", "value": 80}, {"measurement": "Plant response rating, Kochia", "setting": "kochia (Kochia scoparia); [15]", "value": 80}, {"measurement": "Plant response rating, Kochia", "setting": "kochia (Kochia scoparia); [16]", "value": 0}, {"measurement": "Plant response rating, Kochia", "setting": "kochia (Kochia scoparia); [17]", "value": 0}, {"measurement": "Plant response rating, Kochia", "setting": "kochia (Kochia scoparia); [18]", "value": 45}, {"measurement": "Plant response rating, Pigweed", "setting": "[4]; [11]", "value": 98}, {"measurement": "Plant response rating, Pigweed", "setting": "[4]; [13]", "value": 100}, {"measurement": "Plant response rating, Pigweed", "setting": "[4]; [14]", "value": 100}, {"measurement": "Plant response rating, Pigweed", "setting": "[4]; [15]", "value": 100}, {"measurement": "Plant response rating, Pigweed", "setting": "[4]; [16]", "value": 55}, {"measurement": "Plant response rating, Pigweed", "setting": "[4]; [17]", "value": 75}, {"measurement": "Plant response rating, Pigweed", "setting": "[4]; [18]", "value": 85}, {"measurement": "Plant response rating, Ragweed", "setting": "[5]; [11]", "value": 85}, {"measurement": "Plant response rating, Ragweed", "setting": "[5]; [13]", "value": 85}, {"measurement": "Plant response rating, Ragweed", "setting": "[5]; [14]", "value": 90}, {"measurement": "Plant response rating, Ragweed", "setting": "[5]; [15]", "value": 90}, {"measurement": "Plant response rating, Ragweed", "setting": "[5]; [16]", "value": 0}, {"measurement": "Plant response rating, Ragweed", "setting": "[5]; [17]", "value": 50}, {"measurement": "Plant response rating, Ragweed", "setting": "[5]; [18]", "value": 75}, {"measurement": "Plant response rating, Soybean", "setting": "soybean (Glycine max); [11]", "value": 85}, {"measurement": "Plant response rating, Soybean", "setting": "soybean (Glycine max); [13]", "value": 98}, {"measurement": "Plant response rating, Soybean", "setting": "soybean (Glycine max); [14]", "value": 98}, {"measurement": "Plant response rating, Soybean", "setting": "soybean (Glycine max); [15]", "value": 98}, {"measurement": "Plant response rating, Velvetleaf", "setting": "[6]; [11]", "value": 85}, {"measurement": "Plant response rating, Velvetleaf", "setting": "[6]; [13]", "value": 98}, {"measurement": "Plant response rating, Velvetleaf", "setting": "[6]; [14]", "value": 98}, {"measurement": "Plant response rating, Velvetleaf", "setting": "[6]; [15]", "value": 100}, {"measurement": "Plant response rating, Velvetleaf", "setting": "[6]; [16]", "value": 65}, {"measurement": "Plant response rating, Velvetleaf", "setting": "[6]; [17]", "value": 75}, {"measurement": "Plant response rating, Velvetleaf", "setting": "[6]; [18]", "value": 95}, {"measurement": "Plant response rating, Wheat", "setting": "[7]; [11]", "value": 10}, {"measurement": "Plant response rating, Wheat", "setting": "[7]; [13]", "value": 15}, {"measurement": "Plant response rating, Wheat", "setting": "[7]; [14]", "value": 30}, {"measurement": "Plant response rating, Wheat", "setting": "[7]; [15]", "value": 55}, {"measurement": "Plant response rating, Wheat", "setting": "[7]; [16]", "value": 0}, {"measurement": "Plant response rating, Wheat", "setting": "[7]; [17]", "value": 0}, {"measurement": "Plant response rating, Wheat", "setting": "[7]; [18]", "value": 0}, {"measurement": "Plant response rating, Oat, Wild", "setting": "wild oat (Avena fatua); [11]", "value": 60}, {"measurement": "Plant response rating, Oat, Wild", "setting": "wild oat (Avena fatua); [13]", "value": 90}, {"measurement": "Plant response rating, Oat, Wild", "setting": "wild oat (Avena fatua); [14]", "value": 95}, {"measurement": "Plant response rating, Oat, Wild", "setting": "wild oat (Avena fatua); [15]", "value": 98}, {"measurement": "Plant response rating, Oat, Wild", "setting": "wild oat (Avena fatua); [16]", "value": 0}, {"measurement": "Plant response rating, Oat, Wild", "setting": "wild oat (Avena fatua); [17]", "value": 0}, {"measurement": "Plant response rating, Oat, Wild", "setting": "wild oat (Avena fatua); [18]", "value": 0}, {"measurement": "Plant response rating, Canarygrass", "setting": "[8]; [11]", "value": 40}, {"measurement": "Plant response rating, Canarygrass", "setting": "[8]; [13]", "value": 40}, {"measurement": "Plant response rating, Canarygrass", "setting": "[8]; [14]", "value": 40}, {"measurement": "Plant response rating, Canarygrass", "setting": "[8]; [15]", "value": 60}, {"measurement": "Plant response rating, Chickweed", "setting": "[9]; [11]", "value": 98}, {"measurement": "Plant response rating, Chickweed", "setting": "[9]; [13]", "value": 98}, {"measurement": "Plant response rating, Chickweed", "setting": "[9]; [14]", "value": 98}, {"measurement": "Plant response rating, Chickweed", "setting": "[9]; [15]", "value": 100}, {"measurement": "Plant response rating, Windgrass", "setting": "[10]; [11]", "value": 70}, {"measurement": "Plant response rating, Windgrass", "setting": "[10]; [13]", "value": 90}, {"measurement": "Plant response rating, Windgrass", "setting": "[10]; [14]", "value": 95}, {"measurement": "Plant response rating, Windgrass", "setting": "[10]; [15]", "value": 100}]}
